Patent US12680081B2, “Human induced pluripotent stem cell line transformed with fluorescent protein-labeled cytochrome P450 and AHR modulator screening method using same” (priority 2020, dated 2026)
Where a name gives a salt, the structure may show the parent alone.

Experiments:
CYP1A1 mRNA = system: CYP1A1 mRNA
Description: 8. Quantitative Reverse Transcription PCR (RT-qPCR)
Total RNA was extracted from each sample using NucleoZOL reagent (Macherey-Nagel, Duren, Germany) and reverse transcription was performed using GoScript™ reverse transcription mix (Promega) according to the manufacturer's protocol. RT-qPCR was performed with SYBR Green Realtime PCR Master Mix (TOYOBO, Osaka, Japan) in StepOnePlus Real-Time PCR system (Applied Biosystems, Foster City, Calif., USA). PCR amplification was performed in triplicate for each sample. PCR results were expressed as relative fold change compared to the control cells after normalization with glyceraldehyde-3-phosphate dehydrogenase (GAPDH). The ΔCt (SΔCt) value was calculated as the difference between the Ct value obtained for GAPDH and the target gene. The ΔCt value of the control cells was used as the control ΔCt (CΔCt) value. The relative gene expression level was determined using the following formula: 2−(SΔCt−CΔCt).
After preparing cells for RNA extraction, RT-qPCR analysis for the expression of CYP1A1 mRNA was performed according to the above procedure. Dose-response curves were created by the least squares fitting method using GraphPad Prism 5 (GraphPad, San Diego, Calif., USA).

CYP1A1 = test: Ethoxyresorufin-O-deethylase (EROD) analysis of CYP1A1 activity in CYP1A1-mCherry HLCs; settings: for inhibition of the effect of TCDD on CYP1A1 activity: FIG. 10d
Description: Ethoxyresorufin-O-Deetylase (EROD) Analysis
To measure the CYP1A1 activity, cells were cultured in a serum-free medium for 24 hours before treatment. The cells were treated with 7.5 μM ethoxyresorufin in the presence or absence of 10 μM dicumarol (inhibitor) in HBSS for 7.5, 15, 30 and 60 minutes, and 100 μl of the medium was removed into a new microcentrifuge tube. The same amount (100 μl) of ice-cold acetonitrile-methanol was added to the removed medium, followed by brief vortexing and centrifugation at 16,000×g for 5 minutes at 4° C. The supernatant was used for the following analysis. The level of the metabolite resorufin was measured by high-performance liquid chromatography (HPLC) with a Luna C18 column (4.6×150 mm, 5 μm; Phenomenex, Seoul, Korea). The moving phase was composed of 20 mM phosphate buffer-methanol-acetonitrile (52:45:3, v/v/v), and the flow rate was 0.8 ml/minute. Fluorescence was measured at an excitation wavelength of 560 nm and an emission wavelength of 585 nm. Concentrations were calculated using a standard curve for resorufin normalized by the total cellular protein content measured using a BCA protein analysis kit (Thermo Fisher Scientific).

mouse AHR = biological target: T1, mouse AHR (Mus musculus, UniProt P30561); settings: mouse AHR higher than human AHR; cited from earlier work
T1 sequence (P30561 10-848): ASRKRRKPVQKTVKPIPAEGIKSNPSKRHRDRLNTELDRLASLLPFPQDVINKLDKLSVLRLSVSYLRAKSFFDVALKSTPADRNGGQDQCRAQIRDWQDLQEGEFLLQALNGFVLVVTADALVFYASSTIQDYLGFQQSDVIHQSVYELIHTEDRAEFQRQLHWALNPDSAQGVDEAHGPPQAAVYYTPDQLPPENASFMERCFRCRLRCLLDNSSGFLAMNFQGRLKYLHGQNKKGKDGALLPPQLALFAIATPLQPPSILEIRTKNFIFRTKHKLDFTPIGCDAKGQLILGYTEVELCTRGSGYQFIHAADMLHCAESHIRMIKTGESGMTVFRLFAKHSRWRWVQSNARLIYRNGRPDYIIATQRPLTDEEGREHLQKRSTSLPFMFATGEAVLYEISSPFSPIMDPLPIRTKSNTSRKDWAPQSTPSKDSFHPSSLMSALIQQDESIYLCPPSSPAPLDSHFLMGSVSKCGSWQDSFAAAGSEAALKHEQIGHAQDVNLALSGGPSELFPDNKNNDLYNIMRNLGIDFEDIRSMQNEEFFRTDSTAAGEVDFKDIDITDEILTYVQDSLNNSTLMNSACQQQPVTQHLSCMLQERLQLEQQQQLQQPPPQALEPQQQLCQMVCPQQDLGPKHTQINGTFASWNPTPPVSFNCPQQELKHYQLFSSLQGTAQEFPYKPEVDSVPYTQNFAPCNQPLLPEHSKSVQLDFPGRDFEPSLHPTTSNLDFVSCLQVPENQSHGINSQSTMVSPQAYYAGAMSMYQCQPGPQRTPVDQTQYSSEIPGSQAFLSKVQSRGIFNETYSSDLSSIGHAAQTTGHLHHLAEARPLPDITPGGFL

AHR-CYP1A1 axis = test: High-content screening (HCS) of mCherry intensity in live CYP1A1-mCherry HLCs; settings: for inhibition of the effect of TCDD on mCherry expression: human
Description: 9. Chemical Treatment and High-Content Screening (HCS)
To perform HCS, the cells differentiated for 10 days were dissociated, plated in a Matrigel®-coated 96-well plate, and cultured for maturation. […] DMSO was used as a vehicle control. For staining the live cell nucleus, cells were cultured with 2 μg/ml of Hoechst 33342 (Life Technologies) for 10 minutes. Stained cells were imaged using ImageXpress Micro XLS Widefield High-Content Analysis System (Molecular Devices, San Jose, Calif., USA). The acquired images were analyzed using MetaXpress High-Content Image Acquisition and Analysis Software (Molecular Devices) according to disclosed methods. For analysis, cells were first identified using Hoechst staining and mCherry intensity was detected to measure CYP1A1 expression.

CYP1A1-mCherry HLC = test: Cell viability analysis (cell counting Kit-8); format: cell-based; settings: working concentration 10 μM, 24 hours, FIG. 10b
Description: 11. Cell Viability Analysis
To analyze cell viability, target chemicals (10 μM) were treated for 24 hours prior to performing cell viability analysis. Then, 10 μl of cell counting Kit-8 was added to 100 μl of the medium, followed by incubation for 2 hours. Absorbance was measured at 450 nm using an iMark™ microplate absorbance reader (Bio-Rad). Cell viability was calculated using the following formula: Cell viability (%)=(Asample−Ablank)/(Acontrol−Ablank)×100

For `CC(Cc1ccc(O)c(O)c1)C(C)Cc1ccc(O)c(O)c1` (centres unmarked) [nordihydroguaiaretic acid], the “effect according to the dose (dose-response, CYP1A1 mRNA)” value (CYP1A1 mRNA; human, 24 h) was ~ 2 times.
With `COc1ccc(Cc2nccc3cc(OC)c(OC)cc23)cc1OC` [papaverine hydrochloride] the “concentration of maximal induction” value (CYP1A1 mRNA) was “maximal induction at the concentrations used for screening” and the “increase according to the dose (dose-response, CYP1A1 mRNA)” value (CYP1A1 mRNA; human) was 6- to 7 fold.
In the case of `Clc1cc2c(cc1Cl)Oc1cc(Cl)c(Cl)cc1O2` [TCDD, 2,3,7,8-tetrachlorodibenzo-p-dioxin], the CYP1A1 activity (CYP1A1; 60 minutes, FIG. 6b) is given as “increased”, the “affinity of mouse AHR with TCDD compared to human AHR” value (mouse AHR) is given as 10 fold and the “mCherry intensity after treatment” value (AHR-CYP1A1 axis; CYP1A1-mCherry HLC, AHR agonist treatment, FIG. 6a) is given as “time-dependent increase”.
For `O=C(OCC(O)CO)c1ccccc1Nc1ccnc2cc(Cl)ccc12` (centres unmarked) [glafenine], the “concentration of maximal induction” value (CYP1A1 mRNA) was “maximal induction at the concentrations used for screening” and the “increase according to the dose (dose-response, CYP1A1 mRNA)” value (CYP1A1 mRNA; human) was 6- to 7 fold.
For `COc1ccc(/C=C/c2cc(OC)cc(=O)o2)cc1` [2-E05, yangonin], the “inhibition of the effect of TCDD on CYP1A1 activity” value (CYP1A1) was “at the levels of the non-treated control and CH223191”, the “cell death (cell viability)” value (CYP1A1-mCherry HLC) was “without cell death” and the “mCherry intensity compared to CH223191 and TMF” value (AHR-CYP1A1 axis) was “significant decrease”. For the same molecule, the “inhibition of the effect of TCDD on mCherry expression” value (AHR-CYP1A1 axis) was “at the levels of the non-treated control and CH223191”.
With `COc1cc(/C=C/c2ccccc2)oc(=O)c1` [2-E06, desmethoxyyangonin] the “inhibition of the effect of TCDD on CYP1A1 activity” value (CYP1A1) was “at the levels of the non-treated control and CH223191”, the “cell death (cell viability)” value (CYP1A1-mCherry HLC) was “without cell death” and the “mCherry intensity compared to CH223191 and TMF” value (AHR-CYP1A1 axis) was “significant decrease”. The “inhibition of the effect of TCDD on mCherry expression” value (AHR-CYP1A1 axis) was “at the levels of the non-treated control and CH223191”.
In the case of `Cc1ccccc1N=Nc1ccc(NC(=O)c2ccnn2C)c(C)c1` [CH223191], the “transcript expression levels of CYP1A1 and mCherry” value (CYP1A1 mRNA; co-treatment with BaP or TCDD, FIG. 7b) is reported as “reduced”.
